Read-outs that look alike come from different tables or passages of the source.
Target: T1, specific receptor on the membrane of human neutrophils (leukotriene B4) (Homo sapiens, UniProt Q15722)
T1 construct: Freshly-prepared buffy coat layers from two individuals were obtained from a local blood donor center; endogenous in cells; host or cells: intact human peripheral blood neutrophils from buffy coats of two donors
Experiment: Inhibition of Binding of ^3 H-LTB4 to Peripheral Human Neutrophils
Settings: for inhibition at 10 µM / inhibition at 1 µM / inhibition at 0.1 µM: read-out: LTB4 Binding Inhibition; for inhibition at 0.1 µM: drug concentration 10^-7 M
Method: Cells used in the assay were isolated by standard techniques of centrifugation on Ficoll-Hypaque, dextran 70 sedimentation and hypotonic lysis. The following procedure was used. Freshly-prepared buffy coat layers from two individuals were obtained from a local blood donor center. The cells were mixed and diluted to 484 ml with phosphate buffered saline containing heparin (10 units/ml) and heat-inactivated calf serum (5%). This was divided into 20 ml aliquots and the aliquots layered on top of Ficoll-Paque (12 ml). The material was then centrifuged at 500 g for 40 minutes at room temperature. The resulting upper layer of platelets and mononuclear cells was discarded. The lower layer containing erythrocytes and neutrophils was retained. Buffer was added (1 ml per 4 ml of lower layer) and the suspension mixed. For each milliliter of this mixture, 0.33 ml of 6% Macrodex was added. After stirring, the cells were allowed to sediment for 1 hour at 37° C. The resulting erythrocyte pellet was discarded and the neutrophil enriched supernatant fluid centrifuged at 500 g for 10 minutes at 4° C. Erythrocytes still present in this cell pellet were lysed by incubating the cells with 5-8 ml ice-cold distilled water for 30-45 seconds. Subsequently, the volume was made up to 50 ml by addition of ice-cold buffer and the cells resuspended. The suspension was then centrifuged at 300 g for 10 minutes at 4° C. The cells were finally resuspended at a cell density of 2×10^7 cells/ml in the assay buffer This buffer consisted of Hanks' balanced salt solution and 0.1% ovalbumin (pH 7.3).
The amount of bound ^3 H-LTB4 was then measured and compared with the amount bound in the absence of test compound. The assay was carried out in microcentrifuge tubes by adding first 10 μl test compound dissolved in DMSO, followed by adding 20 μl ^3 H-LTB4 diluted in assay buffer, and finally adding 500 μl of the cell suspension. At the end of the 10 minutes incubation, 300 μl of a mixture of dibutyl and dinonyl phthalate (7:2) were added and the tubes centrifuged for 2 minutes in a microcentrifuge. The radioactivity bound to the cell pellet was measured by scintillation spectroscopy. Appropriate corrections for nonspecific bonding of ^3 H-LTB4 were made.

[1] = drug concentration 10^-5 M, 0.1-0.2 nM ^3 H-LTB4, 10 minutes at 4° C
[2] = drug concentration 10^-6 M, 0.1-0.2 nM ^3 H-LTB4, 10 minutes at 4° C
[3] = 0.1-0.2 nM ^3 H-LTB4, 10 minutes at 4° C

T1 sequence (Q15722 whole entry): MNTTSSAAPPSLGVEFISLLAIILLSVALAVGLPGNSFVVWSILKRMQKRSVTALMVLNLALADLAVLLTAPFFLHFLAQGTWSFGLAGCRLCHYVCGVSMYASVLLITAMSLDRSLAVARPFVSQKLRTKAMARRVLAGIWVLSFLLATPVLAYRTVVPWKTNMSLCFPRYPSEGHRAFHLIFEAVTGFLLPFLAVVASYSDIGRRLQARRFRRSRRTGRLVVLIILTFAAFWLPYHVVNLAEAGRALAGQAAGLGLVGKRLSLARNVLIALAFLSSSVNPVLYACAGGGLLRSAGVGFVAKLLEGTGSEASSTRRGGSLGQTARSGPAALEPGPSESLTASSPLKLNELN

| Structure (SMILES) | inhibition at 10 µM [1] | inhibition at 1 µM [2] | inhibition at 0.1 µM [3] | further results |
| --- | --- | --- | --- | --- |
| CCCCCCCCCCOc1ccc(C(=O)c2cccc(-c3nnn[nH]3)c2)cc1CC(=O)OCC [Example 15, 2-(Decyloxy)-5-[3-(1H-tetrazol-5-yl)benzoyl]benzeneacetic acid, ethyl ester] | -13% | 1% |  |  |
| O=C(O)CCc1cc(C(=O)c2cccc(C(=O)O)c2)ccc1OCCCC[S+]([O-])c1ccccc1 (stereo not drawn) [Example 77, 5-(3-Carboxybenzoyl)-2-[4-(phenylsulfinyl)-butoxy]benzenepropanoic acid] | 22% | 8% |  |  |
| COc1ccccc1C=CCCCCOc1ccc(C(=O)c2cccc(C(=O)O)c2)cc1CCC(=O)O [Example 85, 5-(3-Carboxybenzoyl)-2-{[6-(2-methoxyphenyl)-5-hexenyl]oxy}benzenepropanoic acid] | 101% |  | 86% | inhibition at 1 µM: 97% |
| COc1cccc(C=CCCCCOc2ccc(C(=O)c3cccc(C(=O)O)c3)cc2CCC(=O)O)c1 [Example 84, 5-(3-Carboxybenzoyl)-2-{[6-(3-methoxyphenyl)-5-hexenyl]oxy}benzenepropanoic acid] | 99% | 91% | 49% |  |
| COc1ccccc1CCCCCCOc1ccc(C(=O)c2cccc(C(=O)O)c2)cc1CCC(=O)O [Example 87, 5-(3-Carboxybenzoyl)-2-{[6-(2-methoxyphenyl)hexyl]oxy}benzenepropanoic acid] |  | 91% | 34% | inhibition at 10 µM: 100% |
| O=C(O)CCc1cc(NC(=O)c2cccc(C(=O)O)c2)ccc1OCCCCCCc1ccccc1 [Example 102] | 98% | 72% | 18% |  |
| CCCCCCCCCCOc1ccc(Cc2cccc(C(=O)O)c2)cc1CCC(=O)O [Example 50, 5-[(3-Carboxyphenyl)methyl]-2-(decyloxy)benzenepropanoic acid] | 88% | 41% |  |  |
| CCCCCCCCCCOc1ccc(C(=O)c2cccc(C#N)c2)cc1CC#N [Example 12, 5-(3-Cyanobenzoyl)-2-(decyloxy)benzeneacetonitrile] | 3% | -1% |  |  |
| CC(=O)c1ccc(CCCCCCOc2ccc(C(=O)c3cccc(C(=O)O)c3)cc2CCC(=O)O)cc1 [Example 101, 2-{[6-(4-Acetylphenyl)hexyl]oxy}-5-(3-carboxybenzoyl]benzenepropanoic acid] |  | 88% | 46% |  |
| O=C(O)CCc1cc(C(=O)c2cccc(C(=O)O)c2)ccc1OCCCCS(=O)(=O)c1ccccc1 [Example 78, 5-(3-Carboxybenzoyl)-2-[4-(phenylsulfonyl)-butoxy]benzenepropanoic acid] | 18% | 4% |  |  |
| CCCCCCCCCCOc1ccc(C(=O)c2cccc(-c3nnn[nH]3)c2)cc1Cc1nnn[nH]1 [Example 17, [4-(Decyloxy)-3-(1H-tetrazol-5-ylmethyl)phenyl][3-(1H-tetrazol-5-yl)phenyl]methanone] | 81% | 20% |  |  |
| CCCCCCCCCCOc1ccc(C(=O)c2cccc(C(=O)OCC)c2)cc1CC(=O)OCC [Example 4, 2-(Decyloxy)-5-[3-(ethoxycarbonyl)benzoyl]benzeneacetic acid, ethyl ester] | -5% | -1% |  |  |
| CCCCCCCCCCOc1ccc(C(=O)c2ccccc2C(=O)O)cc1CC(=O)O [Example 35, 5-(2-Carboxybenzoyl)-2-(decyloxy)benzeneacetic acid] |  |  |  | LTB4 Binding Inhibition [1]: 53 percent inhibition; LTB4 Binding Inhibition [2]: 2 percent inhibition |
| CS(=O)(=O)c1ccc(C=CCCCCOc2ccc(C(=O)c3cccc(C(=O)O)c3)cc2CCC(=O)O)cc1 [Example 91, 5-(3-Carboxybenzoyl)-2-{[6-(4-methylsulfonylphenyl)-5-hexenyl]oxy}benzenepropanoic acid] | 98% | 88% | 60% |  |

Continued, in another order:

| inhibition at 10 µM [1] | inhibition at 1 µM [2] | inhibition at 0.1 µM [3] | Structure (SMILES) | further results |
| --- | --- | --- | --- | --- |
| -14% | -10% |  | CCCCCCCCCCOc1ccc(C(O)c2cccc(C(=O)OCC)c2)cc1CC(=O)OCC (stereo not drawn) [Example 40, 2-(Decyloxy)-5-{[3-(ethoxycarbonyl)phenyl]hxdroxymethyl}benzeneacetic acid, ethyl ester] |  |
| 41% | 11% |  | CCCCCCCCOc1ccc(C(O)c2cccc(C(=O)O)c2)cc1CC(=O)O (stereo not drawn) [Example 44, 5-[(3-Carboxyphenyl)hydroxymethyl]-2-(octyloxy)benzeneacetic acid] |  |
| 104% | 81% | 22% | O=C(O)CCc1cc(C(=O)c2cccc(C(=O)O)c2)ccc1OCCCCCCc1ccc(F)cc1 [Example 82, 5-(3-Carboxybenzoyl)-2-{[6-(4-fluorophenyl)hexyl]oxy}benzenepropanoic acid] |  |
| 95% | 88% | 46% | COc1cccc(CCCCCCOc2ccc(C(=O)c3cccc(C(=O)O)c3)cc2CCC(=O)O)c1 [Example 86, 5-(3-Carboxybenzoyl)-2-{[6-(3-methoxyphenyl)hexyl]oxy}benzenepropanoic acid] |  |
| 105% | 98% | 68% | COc1ccc(CCCCCCOc2ccc(C(=O)c3cccc(C(=O)O)c3)cc2CCC(=O)O)cc1 [Example 80, 5-(3-Carboxybenzoyl)-2-{[6-(4-methoxyphenyl)-hexyl]oxy}benzenepropanoicacid] |  |
| 19% | -6% |  | CCCCCCCCCCOc1ccc(C(=O)c2ccccc2C(=O)O)cc1CC(=O)OCC [Example 32, 5-(2-Carboxybenzoyl)-2-(decyloxy)benzeneacetic acid, ethyl ester] |  |
| -11% | 14% |  | CCCCCCCCCCOc1ccc(C(=O)c2cccc(C(=O)OCC)c2)cc1Cc1nnn[nH]1 [Example 2, 3-[4-(Decyloxy)-3-(1H-tetrazol-5-ylmethyl)-benzoyl]benzoic acid, ethyl ester] |  |
| 63% | 10% |  | CCCCCCCCCCCCCCOc1ccc(C(=O)c2cccc(C(=O)O)c2)cc1CC(=O)O [Example 26, 5-(3-Carboxybenzoyl)-2-(tetradecyloxy)benzeneacetic acid] |  |
| 80% | 18% |  | CCCCCCCCCCCCOc1ccc(C(=O)c2cccc(C(=O)O)c2)cc1CC(=O)O [Example 27, 5-(3-Carboxybenzoyl)-2-(dodecyloxy)benzeneacetic acid] |  |
| 103% | 79% | 18% | CSc1ccc(C=CCCCCOc2ccc(C(=O)c3cccc(C(=O)O)c3)cc2CCC(=O)O)cc1 [Example 83, 5-(3-Carboxybenzoyl)-2-{[6-(4-methylmercaptophenyl)-5-hexenyl]oxy}benzenepropanoic acid] |  |
| 96% | 91% | 36% | O=C(O)CCc1cc(C(=O)c2cccc(C(=O)O)c2)ccc1OCCCCC=Cc1ccccc1 [Example 76, 5-(3-Carboxybenzoyl)-2-[6-(phenyl-5-hexenyl)oxy]benzenepropanoic acid] |  |

— US5171882A, “Leukotriene antagonists” (Eli Lilly and Company, priority 1990, dated 1992)
